Reference: a melting point compilation (Tetko et al.)

| melting point [°C] | SMILES |
| --- | --- |
| 159 to 161 | O=Cc1ccc2[nH]cnc2c1 |
| 118 | Cc1n[nH]c(C)c1Cl |
| 145 | COc1c(C(C)(C)C(C)C)c(OC(C)=O)c(OC(C)=O)c2ccccc12 |
| 131 to 134 | NC(=NO)c1ccc(Cl)cc1 |
| 68 | O=C(c1ccco1)N1CCNCC1 |
| 220 | CCOC(=O)C1=C(C)NC(=O)NC1c1ccccc1[N+](=O)[O-] (centres undefined) |
| 100 | O=C(Cl)c1cnc2ccccc2n1 |
| 153 to 155 | CC(=O)NC(Cc1ccccc1F)C(=O)O (racemic) |
| 211 | S=C1NCCCN1 |
| 150 | COCc1c(C(=O)OC(C)C)ncc2[nH]c3ccc(OCc4ccccc4)cc3c12 |
| 44 to 46 | CCCCCCCCCCCCCCCCCCOCCOCCOCCOCCOCCOCCOCCOCCOCCOCCOCCOCCOCCOCCOCCOCCOCCOCCOCCOCCO |
| -30 | CC(C)(O)CCCC1=CCC(C=O)CC1 (centres undefined) |
| 174 to 175 | Nc1[nH]ncc1-c1ccc(F)cc1 |
| 39 to 41 | O=S(=O)(Cl)Cc1cccc(F)c1 |
| 125 to 126 | OC(c1ccc(-c2ccc(C(O)(C(F)(F)F)C(F)(F)F)cc2)cc1)(C(F)(F)F)C(F)(F)F |
| 15.8 | C=CCc1ccc(O)cc1 |
| 145 | COc1ccc(N/N=C(/C#N)c2nc(-c3ccc(C)cc3)cs2)cc1 |
| 16.7 | c1cc2c(c3c1CCCC3)CCCC2 |
| 93 to 98 | N#Cc1cc(Br)ccc1N |
| 178 | CC(=O)Oc1c(-c2ccccc2)n(C(C)=O)c2cc([N+](=O)[O-])ccc12 |
| 102 to 104 | Cc1noc(-c2ccc(CO)cc2)n1 |
| 53.3 | CC(=O)OC(OC(C)=O)c1ccco1 |

| melting point [°C] | SMILES |
| --- | --- |
| -8 | C1=Cc2ccccc2CC1 |
| 58 to 60 | CCOC(=O)c1cc(C)nc(Cl)c1C#N |
| 359 | S=c1nnc(-c2ccccc2)c(Nc2ccc(Br)cc2)[nH]1 |
| 165 to 167 | c1ccc(C/C(=N\Nc2ccccc2)c2ccc3ccccc3c2)cc1 |
| 177 | COc1ccc2c(OC)c3ccoc3nc2c1OC |
| 92 | OC1c2ccccc2CCc2ccccc21 |
| 159 | Cn1c2cc(N3CCCC3)cc(-c3ccccc3)c2c(=O)n1-c1ccccc1 |
| 234 to 235 | Cc1nc2sc3c(c2c(=O)n1NC(=O)c1ccc(Cl)cc1)CCCC3 |
| 114 | COc1ccc(C2Cc3ccccc3C(O)O2)cc1 (centres undefined) |
| 1 | CC1CCS(=O)(=O)C1 (centres undefined) |
| 165 | O=c1ccc2cc(Cl)ccc2o1 |
| 47 | O=C(c1ccccc1)c1ccc(F)cc1 |
| 151 to 153 | CCOC(=O)c1cnc2cc(-c3cccs3)nn2c1C |
| 201 to 202 | Nc1nsc(-c2ccc(Cl)cc2)n1 |
| 156 | Cc1ccc(C(c2ccc(C(c3ccc(C)o3)c3ccc(C)o3)cc2)c2ccc(C)o2)o1 |
| 54.5 | CN1CCN(C2CCNCC2)CC1 |
| 316 | Nc1nc(N)c2nc(-c3ccccc3)c(N)nc2n1 |
| 240 to 241 | O=C1C(=C2C=Cc3ccccc3N2)C(=O)c2ccccc21 |
| 118 | CCOc1ccc(-c2nnc3n2NC(c2ccccc2)S3)cc1 (centres undefined) |
| 57 to 58 | O=Cc1ccc(-c2cccs2)s1 |
| 40 | FC(F)(F)c1ccc(Br)cn1 |

| SMILES | melting point [°C] |
| --- | --- |
| Cc1cc(C(C#N)c2ccc(Cl)cc2)c(Cl)cc1NC(=O)c1cc(I)cc(I)c1O (centres undefined) | 218 |
| CC12CCC3C(CCC4CCCCC43C)C1CCC2=O (centres undefined) | 121 |
| Cc1cc(C)cc(O[Si]23OCCN(CCO2)CCO3)c1 | 220 |
| CCC1(CC)C(=O)NC(=S)NC1=O | 180 |
| CC(=O)OC1CCC2C3CCC4CC(=C(C)C)CCC4(C)C3CCC12C (centres undefined) | 107 to 108 |
| CC(C)N(C(=O)SCC(Cl)=C(Cl)Cl)C(C)C | 29 |
